# Where “and” joins values, the source holds several entries; their conditions need not be identical. Equal values may be shown once. Read-outs that look alike come from different tables or passages of the source.
# Columns and labels:
# [1] = Influencing factors test (physical and chemical stability) of canagliflozin crystal forms, Test Example 2; assay type: physicochemical; set-up: Impurity RRT0.73 content / Impurity RRT0.93 content / Impurity RRT1.12 content / Impurity RRT1.17 content / Impurity RRT2.25 content / Impurity RRT2.28 content / Impurity RRT0.57 content / Impurity RRT0.67 content: unit not given here
# Protocol: The canagliflozin-sarcosine cocrystal and canagliflozin hemihydrate (original crystal form) were tested for influencing factors.
# [2] = 1 g cannot be dissolved in 10000 ml; cited from earlier work
# [3] = RH80%/25° C. 24 h
# [4] = Water, 25° C., 24 h
# [5] = physchem; conditions: thermodynamic from solid
# [6] = Comparison of sieving performance; conditions: 30 g, 80 mesh sieve, 1400 rpm, 20 minutes
# [7] = Particle size by laser particle size analyzer; conditions: water as a dispersant
# [8] = Fluidity (angle of repose, bulk density, tap density); conditions: BT-1000 powder comprehensive property tester
# [9] = Influencing factors test (physical and chemical stability) of dapagliflozin crystal forms, Test Example 1
# [10] = Directly exposed at 60° C. for 10 days
# [11] = Directly exposed at 5000 LX for 10 days
# [12] = Directly exposed at RH75% for 10 days
# [13] = artificial gastric juice, 25 °C, simulated gastric fluid
# [14] = artificial intestinal juice, 25 °C, fassgf or other biorelevant
# [15] = citrate buffer of pH 3.0, 25 °C, pH 3, aqueous buffer
# [16] = hydrochloric acid of pH 1.0, 25 °C, pH 1, simulated gastric fluid
# [17] = phosphate buffer, 25 °C, pH 6.8, aqueous buffer
# [18] = 60° C., directly exposed 10 days
# [19] = Light irradiation of 5000 Lx, 10 days
smiles,measurement,setting,value
Cc1ccc([C@@H]2O[C@H](CO)[C@@H](O)[C@H](O)[C@H]2O)cc1Cc1ccc(-c2ccc(F)cc2)s1.O [canagliflozin hemihydrate],Impurity RRT0.57 content,[1]; 0 day,0.01
same,Impurity RRT0.67 content,[1]; 0 day,0.01
same,Impurity RRT0.93 content,[1]; 0 day,0.01
same,Impurity RRT1.17 content,[1]; 0 day,0.01
same,Impurity RRT2.25 content,[1]; 0 day,0.01
same,Impurity RRT2.28 content,[1]; 0 day,0.01
same,Number of impurities,[1]; 0 day,6
same,Property (appearance),[1]; 0 day,White
same,Total content of impurities,[1]; 0 day,0.06%
same,Impurity RRT0.57 content,[1]; [10],0.01
same,Impurity RRT0.67 content,[1]; [10],0.01
same,Impurity RRT0.93 content,[1]; [10],0.01
same,Impurity RRT1.17 content,[1]; [10],0.01
same,Impurity RRT2.25 content,[1]; [10],0.01
same,Impurity RRT2.28 content,[1]; [10],0.01
same,Number of impurities,[1]; [10],6
same,Property (appearance),[1]; [10],White
same,Total content of impurities,[1]; [10],0.05%
same,Impurity RRT0.57 content,[1]; [11],0.02
same,Impurity RRT0.73 content,[1]; [11],0.01
same,Impurity RRT0.93 content,[1]; [11],0.01
same,Impurity RRT1.12 content,[1]; [11],0.01
same,Impurity RRT1.17 content,[1]; [11],0.01
same,Impurity RRT2.25 content,[1]; [11],0.01
same,Impurity RRT2.28 content,[1]; [11],0.01
same,Number of impurities,[1]; [11],7
same,Property (appearance),[1]; [11],White
same,Total content of impurities,[1]; [11],0.08%
same,Impurity RRT0.57 content,[1]; [12],0.01
same,Impurity RRT0.67 content,[1]; [12],0.01
same,Impurity RRT0.93 content,[1]; [12],0.02
same,Impurity RRT1.17 content,[1]; [12],0.01
same,Impurity RRT2.25 content,[1]; [12],0.01
same,Impurity RRT2.28 content,[1]; [12],0.01
same,Number of impurities,[1]; [12],6
same,Property (appearance),[1]; [12],White
same,Total content of impurities,[1]; [12],0.07%
same,Weight gained,[1]; high humidity of RH75% for 10 days,about 2.1%
same,Weight lost,[1]; high temperature of 60° C. for 10 days,about 1.0%
same,New impurities detected (number),[1]; light irradiation of 5000LX for 10 days,1
same,Solubility in water,[2],almost insoluble in water
CCOc1ccc(Cc2cc([C@@H]3O[C@H](CO)[C@@H](O)[C@H](O)[C@H]3O)ccc2Cl)cc1 [dapagliflozin-sarcosine cocrystal],Hygroscopicity,[3],does not have hygroscopicity
same,Percentage of weight gain (%),[3],0.00%
same,Solubility,[4],1590 µg/mL
same,solubility at 12 h,"[5]; acetate buffer of pH 4.0, 25 °C, pH 4, aqueous buffer",1640 µg/mL
same,solubility at 24 h,"[5]; acetate buffer, 25 °C, pH 4, aqueous buffer",1620 µg/mL
same,Solubility,"[5]; aqueous media of different pH, 25 °C, aqueous buffer",1400 to 1600 µg/mL
same,solubility at 12 h,[5]; [13],1560 µg/mL
same,solubility at 24 h,[5]; [13],1550 µg/mL
same,solubility at 12 h,[5]; [14],1400 µg/mL
same,solubility at 24 h,[5]; [14],1430 µg/mL
same,solubility at 12 h,[5]; [15],1620 µg/mL
same,solubility at 24 h,[5]; [15],1610 µg/mL
same,solubility at 12 h,[5]; [16],1600 µg/mL
same,solubility at 24 h,[5]; [16],1560 µg/mL
same,solubility at 12 h,[5]; [17],1580 µg/mL
same,solubility at 24 h,[5]; [17],1580 µg/mL
same,Average yield (%) after sieving,[6],91.8%
same,Situations after sieving,[6],Almost no large particles on the
same,"Yield after sieving (%, n = 3), single runs",[6],"93.6, % and 90.5, % and 91.3%"
same,D10 (μm),[7],5.151 μm
same,D50 (μm),[7],24.83 μm
same,D90 (μm),[7],89.93 μm
same,Angle of repose (°),[8],40 °
same,Bulk density,[8],0.40 g/mL
same,Tap density,[8],0.58 g/mL
same,"Impurity 10 (RT 33.01 min, RRT 1.61) content",[9]; 0 day,0.03
same,"Impurity 11 (RT 33.72 min, RRT 1.65) content",[9]; 0 day,0.01
same,"Impurity 12 (RT 34.69 min, RRT 1.69) content",[9]; 0 day,0.03
same,"Impurity 13 (RT 39.10 min, RRT 1.91) content",[9]; 0 day,0.01
same,Number of impurities,[9]; 0 day,4
same,Property (appearance),[9]; 0 day,White
same,Total content of impurities (%),[9]; 0 day,0.07%
same,"Impurity 10 (RT 33.01 min, RRT 1.61) content",[9]; [18],0.02
same,"Impurity 11 (RT 33.72 min, RRT 1.65) content",[9]; [18],0.01
same,"Impurity 12 (RT 34.69 min, RRT 1.69) content",[9]; [18],0.02
same,"Impurity 13 (RT 39.10 min, RRT 1.91) content",[9]; [18],0.01
same,Number of impurities,[9]; [18],4
same,Property (appearance),[9]; [18],White
same,Total content of impurities (%),[9]; [18],0.06%
same,"Impurity 10 (RT 33.01 min, RRT 1.61) content",[9]; [19],0.02
same,"Impurity 11 (RT 33.72 min, RRT 1.65) content",[9]; [19],0.01
same,"Impurity 12 (RT 34.69 min, RRT 1.69) content",[9]; [19],0.02
same,"Impurity 13 (RT 39.10 min, RRT 1.91) content",[9]; [19],0.01
same,Number of impurities,[9]; [19],4
same,Property (appearance),[9]; [19],White
same,Total content of impurities (%),[9]; [19],0.05%
same,"Impurity 10 (RT 33.01 min, RRT 1.61) content","[9]; RH75%, 10 days",0.02
same,"Impurity 11 (RT 33.72 min, RRT 1.65) content","[9]; RH75%, 10 days",0.01
same,"Impurity 12 (RT 34.69 min, RRT 1.69) content","[9]; RH75%, 10 days",0.02
same,"Impurity 13 (RT 39.10 min, RRT 1.91) content","[9]; RH75%, 10 days",0.01
same,Number of impurities,"[9]; RH75%, 10 days",4
same,Property (appearance),"[9]; RH75%, 10 days",White
same,Total content of impurities (%),"[9]; RH75%, 10 days",0.06%
same,"Number of impurities detected and total content of impurities detected, change","[9]; all the test conditions, 10 days vs 0 day",did not increase
same,Crystal form stability (XRPD),"[9]; each influencing factor (60° C., 5000LX, RH75%) for 10 days vs 0 day",did not change
